Biological target: T1, 3-phosphoinositide-dependent protein kinase 1 (PDK1) (Homo sapiens, UniProt O15530)
T1 construct: gene PDPK1; PH domain, amino-acids 411-552
T1 sequence (O15530 411-552): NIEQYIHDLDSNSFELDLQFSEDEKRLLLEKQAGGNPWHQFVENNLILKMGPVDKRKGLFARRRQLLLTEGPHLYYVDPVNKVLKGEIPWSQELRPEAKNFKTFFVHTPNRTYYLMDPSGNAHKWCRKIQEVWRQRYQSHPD
Test: isothermal titration calorimetry with purified recombinant PH domain, […] °C, four experiments, n = […]
Format: binding

Compound: O=P(O)(O)O[C@@H]1[C@@H](OP(=O)(O)O)[C@H](OP(=O)(O)O)[C@H](OCc2ccccc2)[C@H](OP(=O)(O)O)[C@H]1OP(=O)(O)O [2-O-Bn-InsP5, 2-O-benzyl-myo-inositol 1,3,4,5,6-pentakisphosphate]
- Kd: 109 ± 44 nM

Source: article PMC4873738, “A Small Molecule Inhibitor of PDK1/PLCγ1 Interaction Blocks Breast and Melanoma Cancer Cell Invasion” (Scientific Reports, 2016)
